In patent publication US10835548B2, “Metronomic oral gemcitabine for cancer therapy” (priority 2016, dated 2020):
Read-outs that look alike come from different tables or passages of the source.

Legend:
[1] = test system: CFPAC-1 pancreatic cancer xenografts; assay: 5FU injection followed by GEMORAL in CFPAC-1 xenografted mouse model; type: in vivo, BALB/c nude mice
Procedure: Pancreatic cancer monotherapy using 5-fluorouracil (5FU) injection is known. […] We investigated oral metronomic GEM administration as a second-line treatment in 5FU-non-responsive pancreatic tumors using a xenograft model. To prepare the xenografted mice used in the study, 1×10^6 human CFPAC-1 pancreatic cancer cells were transplanted subcutaneously on the right flank of 6 week old male BALB/c nude mice. Tumor growth was observed once a week, tumor volume was measured as L×W^2/2 by caliper, and mice were selected for inclusion in the study when their tumor volume reached about 131 cubic millimeters. […] The day on which mice were first dosed was designated “Day 0” of the study, and the study continued for 112 days. Mice of Group 1 were orally administered 10 mg/kg GEMORAL every other day (i.e., Q2D×56), beginning on day 0 of the study and extending through the end of the study. […] Beginning on day 63 of the study, the mice were orally administered 10 mg/kg GEMORAL every other day (i.e., Q2D×25) through the end of the study. […] Beginning on day 21 of the study, the mice were orally administered 10 mg/kg GEMORAL every other day (i.e., Q2D×46) through the end of the study. […] They were intraperitoneally injected with saline on days 0, 3, 6, and 9 of the study (i.e., Q3D×4). […]

[2] = test system: CFPAC-1 pancreatic cancer xenografts; assay: Xenografted mouse model of human pancreatic cancer cell line CFPAC-1; type: in vivo, BALB/c nude mice; conditions: Group 1: GEM 120 mg/kg i.p. Q3D×23
Procedure: Example 4 is a study in which the effects of GEM upon mice into which cells of human pancreatic cancer cell line CFPAC-1 were xenografted.
To prepare the xenografted mice used in the study, 1×10^6 human CFPAC-1 pancreatic cancer cells were transplanted subcutaneously on the right flank of 6 week old male BALB/c nude mice. Tumor growth was observed once a week and the tumor volume was measured as L×W^2/2 by caliper. Tumor development in the xenografted mice was then observed, and 48 such mice were selected for inclusion in the study when their tumor volume reached about 141 cubic millimeters. The mice were divided into 6 groups of 8 mice each for the study. The day on which mice were first dosed was designated “Day 0” of the study, and the study continued for 91 days.
Mice of Group 1 were intraperitoneally injected with 120 mg/kg of GEM on day 0 and every third day thereafter through day 66 (i.e., Q3D×23) and were not further treated thereafter.
Mice of Group 2 were intraperitoneally injected with 120 mg/kg of GEM on days 0, 3, 6, and 9 of the study (i.e., Q3D×4). Beginning on day 12 of the study, the mice were orally administered 10 mg/kg GEM in the GEMORAL composition (hereinafter “10 mg/kg GEMORAL”) every other day (i.e., Q2D×28) through day 66; the mice were not further treated thereafter.
Mice of Group 3 were intraperitoneally injected with 120 mg/kg of GEM on days 0, 3, 6, and 9 of the study (i.e., Q3D×4). Beginning on day 12 of the study, the mice were orally administered 3 mg/kg GEM in the GEMORAL composition (hereinafter “3 mg/kg GEMORAL”) every day (i.e., QD×55) through day 66; the mice were not further treated thereafter.
Mice of Group 4 were orally administered 3 mg/kg GEMORAL every day (i.e., QD×92), beginning on day 0 of the study and extending through the end of the study.
Mice of Group 5 were orally administered 10 mg/kg GEMORAL every other day (i.e., Q2D×46), beginning on day 0 of the study and extending through the end of the study.
Mice of Group 6 were controls and were not administered GEM. […]

[3] = MTD of GEM intravenous infusion regime in human cancer patients (Fossella et al.); type: in vivo
Procedure: For GEM, others have determined MTD values for human cancer patients. For example, Fossella et al. (1997, J. Clin. Oncol. 15:310-316) estimated an MTD of 2,400 mg/m^2/week for a GEM intravenous infusion regime regime (2,400 mg/m^2 corresponding to 3,893 mg/60 kg for a human patient, equal to 64.988 mg/kg). Labeling for a commercial GEM product, marketed under the brand name GEMZAR (Eli Lilly and Co.) recommends an intravenous dosage of 1,000 or 1,250 mg/m^2. In details, GEMZAR dosage administration is conducted at a dose of 1,000 mg/m^2, corresponding to 1,622 mg/60 kg for a human patient, equal to 27.03 mg/kg, administered on Days 1 and 8 or Days 1, 8, and 15 of a 21-day cycle, or at a dose of 1,250 mg/m^2, corresponding to 2,027 mg/60 kg for a human patient, equal to 33.878 mg/kg, administered on Days 1, 8, and 15 of a 28-day cycle.

[4] = intravenous infusion, human cancer patients; cited from earlier work
[5] = test system: patient-derived human cholangiocarcinoma xenografts; assay: Xenografted mouse model of patient-derived human cholangiocarcinoma; type: in vivo; conditions: Group 1: GEM 60 mg/kg i.p. Q3D×4
Procedure: This example describes a study in which the effects of gemcitabine upon mice into which portions of a human patient-derived cholangiocarcinoma were xenografted. The xenografted mice were then treated with one of five treatment regimens and the results observed.
To prepare the xenografted mice used in the study, primary human cholangiocarcinoma fragments obtained from human patients were injected into “stock” male BALB/c nude mice. Subsequently, tumor fragments (roughly 2-3 millimeters in diameter) were harvested from the “stock” mice and inoculated subcutaneously into the right flank of other male BALB/c nude mice. Tumor development in the inoculated mice was then observed, and 40 such mice were selected for inclusion in the study when their tumor volume reached about 180 cubic millimeters (volume was assessed by multiplying tumor length by ½ (tumor width squared) (i.e., L×W^2/2), length and width being measured using a caliper). The mice were divided into 5 groups of 8 mice each for the study, all mice in each group having tumors of approximately equal size. The day on which mice were first dosed was designated “Day 1” of the study, and the study continued for 76 days. The mice were divided into Groups 1, 2, 3, 4, and 5. Mice of each group were treated identically.
Mice of Group 1 were intraperitoneally injected with 60 mg/kg of GEM on days 1, 4, 7, and 10 of the study (i.e., Q3D×4) and were not further treated thereafter. […]
(§1) Mice of Group 5 were controls and were not administered GEM. They were intraperitoneally injected with saline on days 1, 4, 7, and 10 of the study (i.e., Q3D×4). Beginning on day 13 of the study, the mice were orally administered distilled, deionized water every other day (i.e., Q2D×32) through the end of the study.
The study was continued until day 76 and the body weight losses among the mice of the various Groups were observed. […] For Group 3, 6 of 8 mice were dead by day 10.
Values reflecting anti-tumor responses, as compared with vehicle treatment (T/C %, calculated as the ratio of average tumor volume in treatment group vs. average tumor volume in the control group {Group 5}, expressed as a percentage) on different study days are indicated in Table 1.

[6] = test system: HuCCT1 cholangiocarcinoma xenografts; assay: Xenografted mouse model of human cholangiocarcinoma cell line HuCCT1; type: in vivo, BALB/c nude mice; conditions: Group 1: GEM 60 mg/kg i.p. Q3D×4
Procedure: Example 3 is a study in which the effects of GEM upon mice into which cells of human cholangiocarcinoma cell line HuCCT1 were xenografted. The xenografted mice were then treated with one of five treatment regimens and the results observed over the study period of 90 days.
To prepare the xenografted mice used in the study, 1×10^6 HuCCT1 human cholangiocarcinoma cells were transplanted subcutaneously on the right flank of 6 week old male BALB/c nude mice. Tumor growth was observed once a week and the tumor volume was measured as L×W^2/2 by caliper. Tumor development in the xenografted mice was then observed, and 40 such mice were selected for inclusion in the study when their tumor volume reached about 124 cubic millimeters. The mice were divided into 5 groups of 8 mice each for the study. The day on which mice were first dosed was designated “Day 0” of the study, and the study continued for 90 days.
Mice of Group 1 were intraperitoneally injected with 60 mg/kg of GEM on days 0, 3, 6, and 9 of the study (i.e., Q3D×4) and were not further treated thereafter.
Mice of Group 2 were intraperitoneally injected with 60 mg/kg of GEM on days 0, 3, 6, and 9 of the study (i.e., Q3D×4). Beginning on day 13 of the study, the mice were orally administered 10 mg/kg GEM in the GEMORAL composition (hereinafter “10 mg/kg GEMORAL”) every other day (i.e., Q2D×40) through the end of the study.
Mice of Group 3 were intraperitoneally injected with 60 mg/kg of GEM on days 0, 3, 6, and 9 of the study (i.e., Q3D×4). Also beginning on day 1 of the study, the mice were orally administered 10 mg/kg GEMORAL every other day (i.e., Q2D×46) through the end of the study.
Mice of Group 4 were orally administered 10 mg/kg GEMORAL every other day (i.e., Q2D×46), beginning on day 1 of the study and extending through the end of the study.
as §1, with “0, 3, 6,” for “1, 4, 7,”, “9” for “10”, “Q2D×40)” for “Q2D×32)”
The study was continued until day 90 and body weight losses among the mice of the various Groups were observed. In Group 3, all mice lost over 20% body weight by day 12.
Values reflecting anti-tumor responses, as compared with vehicle treatment (T/C %) on different study days are indicated in Table 2. […] It is noteworthy that by day 12 the cumulative dose of GEM for Group 4 was only about 25% that of Group 1.

O=c1[nH]cc(F)c(=O)[nH]1 [5FU, 5-fluorouracil]
anti-tumor response attributable to 5FU treatment ([1]; Group 2: 5FU 20 mg/kg i.p. thrice weekly, first 9 weeks): No significant anti-tumor response | anti-tumor response attributable to 5FU treatment ([1]; Group 3: 5FU 20 mg/kg i.p. thrice weekly, first 3 weeks): No significant anti-tumor response

Nc1ccn([C@@H]2O[C@H](CO)[C@@H](O)C2(F)F)c(=O)n1 [GEM, gemcitabine]
days at which at least some mice were tumor free [2]: 44 to 91 days | mice tumor free ([2]; at day 91): 6/8 | maximum anti-tumor response, T/C ([2]; on day 81): 0% | MTD (corresponding dose for a human patient) ([3]; converted from 2,400 mg/m^2): 3,893 mg/60 kg | MTD ([3]; human, in vivo, converted from 2,400 mg/m^2, read-out: MTD (corresponding dose per body weight)): 65 mg/kg | MTD [4]: 2,400 mg/m^2/week | T/C ([5]; Day 14): 52% | T/C ([5]; Day 42): 22% | T/C ([5]; Day 73): 46% | T/C ([5]; Day 76): 49% | tumor growth after end of dosing ([5]; after day 11): significant tumor growth after completing the scheduled dosing | mice dead (died or tumor size >1000 cubic millimeters) ([5]; by day 76): 4 of 8 | T/C ([6]; Day 12): 54% | T/C ([6]; Day 37): 60% | T/C ([6]; Day 58): 93% | T/C ([6]; Day 76): 96% | T/C ([6]; Day 90): 82% | mean survival time (MST) [6]: 69 days | survival rate ([6]; day 90, Kaplan-Maier): 50% | maximum tumor growth inhibition value ([6]; on day 27): 47%
